Values after ≈ are worked out from the molar mass of the structure shown.
Legend:
[1] = Aqueous solubility of compound in pH 6.8; assay type: physicochemical; settings: aqueous medium
[2] = test system: GTPase KRas (Homo sapiens), P01116 [G12C]; experiment: Displacement of [acrylamide-2,3-3H2]-N-(3-fluoro-4-(2-methyl-3-(5-methyl-1H- indazole-4-yl)-1H-pyrrolo[ 2,3-b]pyridin-1-yl)-phenyl from KRAS G12C mutant (unknown origin) assessed as ratio of Kinact/Ki by competitive scintillation proximity assay
[3] = biological target: GTPase KRas (Homo sapiens, UniProt P01116, G12C); experiment: Inhibition of KRAS G12C mutant in human NCI-H358 cells assessed as reduction in ERK phosphorylation incubated for 6 hrs by MSD assay; assay type: cell-based
[4] = Lipophilicity, logD of compound at pH 7.4; assay type: physicochemical; settings: buffer
[5] = Apparent permeability across apical to basolateral side in MDCK-MDR1 cells at 10 uM after 2 hrs by LC-MS/MS analysis; assay type: ADME, cell-based, Canis lupus familiaris; settings: dog
[6] = Cysteine reactivity in pH 7.4 phosphate buffer assessed as compound half life at 2 uM in presence of GSH
[7] = Aqueous solubility of compound in pH 4; assay type: physicochemical; settings: aqueous medium

Compound	solubility [1]	Ratio [2]	IC50 [3]	logD [4]	Papp A→B at 2 h, 10 µM [5]	T1/2 [6]	solubility [7]
C=CC(=O)N1CC2(CC(n3nc(-c4ccc5c(c4)ncn5C)c(-c4c(Cl)c(C)cc5[nH]ncc45)c3C)C2)C1	40 µM (≈ 21 µg/mL)	24 mM⁻¹ s⁻¹	0.14 µM	3.9	38 nm/s	–	–
C=CC(=O)N1CC2(CC(n3nc(-c4cccnc4)c(-c4c(Cl)c(C)cc5[nH]ncc45)c3C(F)F)C2)C1	–	3 mM⁻¹ s⁻¹	–	–	–	–	–
C=CC(=O)N1CC2(CC(n3nc(-c4ccc5nnccc5c4)c(-c4c(Cl)c(C)cc5[nH]ncc45)c3C)C2)C1	10 µM (≈ 5.24 µg/mL)	25 mM⁻¹ s⁻¹	–	4.1	61 nm/s	–	–
C=CC(=O)N1CC2(CC(n3nc(C4CCCCC4)c(-c4c(C)ccc5[nH]ncc45)c3C)C2)C1	–	0.3 mM⁻¹ s⁻¹	–	–	–	–	–
C=CC(=O)N1CC2(CC(n3nc(-c4ccc5[nH]ncc5c4)c(-c4c(Cl)c(C)cc5[nH]ncc45)c3C)C2)C1	10 µM (≈ 5.12 µg/mL)	116 mM⁻¹ s⁻¹	0.02 µM	4.6	6 nm/s	–	–
C=CC(=O)N1CC2(CC(n3nc(C(C)C)c(-c4c(C)ccc5[nH]ncc45)c3C)C2)C1	–	0.4 mM⁻¹ s⁻¹	3.9 µM	–	–	–	–
C=CC(=O)N1CC2(CC(n3nc(C4CCCCC4)c(-c4c(Cl)ccc5[nH]ncc45)c3C)C2)C1	–	0.9 mM⁻¹ s⁻¹	0.7 µM	–	–	–	–
C=CC(=O)Nc1ccc(-c2nn(C(C)C)c(-c3c(C)ccc4[nH]ncc34)c2C)c(F)c1	–	0.2 mM⁻¹ s⁻¹	–	–	–	57 min	–
C=CC(=O)Nc1ccc(-n2nc(C(C)C)c(-c3c(C)ccc4[nH]ncc34)c2C)cc1	–	0.6 mM⁻¹ s⁻¹	–	–	–	–	–
C=CC(=O)N1CC2(CC(n3nc(-c4ccc5nn(CCN6CCOCC6)cc5c4)c(-c4c(Cl)c(C)cc5[nH]ncc45)c3C)C2)C1	30 µM (≈ 18.8 µg/mL)	190 mM⁻¹ s⁻¹	0.01 µM	4.2	28 nm/s	–	> 1000 µM
C=CC(=O)N1CC2(CC(n3nc(-c4ccccn4)c(-c4c(Cl)c(C)cc5[nH]ncc45)c3C)C2)C1	–	7 mM⁻¹ s⁻¹	–	–	–	–	–
C=CC(=O)Nc1ccc(-n2nc(C)c(-c3c(C)ccc4[nH]ncc34)c2C)cc1	–	0.1 mM⁻¹ s⁻¹	–	–	–	–	–
